Measurements from publication PMC6917776, “Discovery of a chemical probe for PRDM9” (Nature Communications, 2019).

Columns and labels:
MDA-MB-436 = test: CelltiterGlo viability cell assay; assay type: cell-based; details: MDA MB436, 6 day
Procedure: (§1) Supplementary Figure 13. […] Viability of
(§2) (a) Multiple Myeloma lines and (b) Breast Cancer cell lines following 3 or 6 days treatment with […]
(§3) manufacturer’s instructions as described in the Supplementary methods. Data are normalized to DMSO control. N=3 biological replicates, +/- SEM. Source data are provided as a Source Data […]
(§4) CelltiterGlo viability cell assay
(§5) Cells were seeded in 96 well plates at per-well densities of 10000 (MDA-MB436, ATCC-HTB130), 15000 (8226, kind gift from Rodger Tiedemann, Princess Margaret Cancer Centre), […]
(§6) kind gift from Rodger Tiedemann, Princess Margaret Cancer Centre) and 50000 (CAL851, kind gift from Mathieu Lupien, Princess Margaret Cancer Centre) and were treated at increasing concentrations of compounds ranging from 0.01 μM to 30 μM and assessed for proliferation using CelltiterGlo (Promega) following manufacturer’s instructions, as readout on days 3 and 6 as indicated. All cell lines were mycoplasma negative, as determined by MycoAlert™ Mycoplasma Detection Kit(Lonza). […]

RPMI-8226 = test: CelltiterGlo viability cell assay; assay type: cell-based
Procedure: as §1, §2, §3, §4, §5, §6

Structure (SMILES): COc1cc(OC)cc(-c2noc(N3CCN(C)C4(CCN(c5ccccc5)CC4)C3)n2)c1 [MRK-740N]
- viability Average (MDA-MB-436; 0.01 uM): 103.60
- viability Replicate 1 (MDA-MB-436; 0.01 uM): 113.45
- viability Replicate 2 (MDA-MB-436; 0.01 uM): 100.02
- viability Replicate 3 (MDA-MB-436; 0.01 uM): 97.33
- viability Average (MDA-MB-436; 0.03 uM): 104.88
- viability Replicate 1 (MDA-MB-436; 0.03 uM): 112.01
- viability Replicate 2 (MDA-MB-436; 0.03 uM): 99.73
- viability Replicate 3 (MDA-MB-436; 0.03 uM): 102.91
- viability Average (MDA-MB-436; 0.1 uM): 102.74
- viability Replicate 1 (MDA-MB-436; 0.1 uM): 107.88
- viability Replicate 2 (MDA-MB-436; 0.1 uM): 92.08
- viability Replicate 3 (MDA-MB-436; 0.1 uM): 108.25
- viability Average (MDA-MB-436; 0.3 uM): 105.71
- viability Replicate 1 (MDA-MB-436; 0.3 uM): 111.04
- viability Replicate 2 (MDA-MB-436; 0.3 uM): 94.90
- viability Replicate 3 (MDA-MB-436; 0.3 uM): 111.19
- viability Average (MDA-MB-436; 1 uM): 105.76
- viability Replicate 1 (MDA-MB-436; 1 uM): 115.22
- viability Replicate 2 (MDA-MB-436; 1 uM): 95.99
- viability Replicate 3 (MDA-MB-436; 1 uM): 106.08
- viability Average (MDA-MB-436; 3 uM): 103.68
- viability Replicate 1 (MDA-MB-436; 3 uM): 104.50
- viability Replicate 2 (MDA-MB-436; 3 uM): 94.30
- viability Replicate 3 (MDA-MB-436; 3 uM): 112.23
- viability Average (MDA-MB-436; 9.5 uM): 88.40
- viability Replicate 1 (MDA-MB-436; 9.5 uM): 98.62
- viability Replicate 2 (MDA-MB-436; 9.5 uM): 74.13
- viability Replicate 3 (MDA-MB-436; 9.5 uM): 92.44
- viability Average (MDA-MB-436; 30 uM): 37.17
- viability Replicate 1 (MDA-MB-436; 30 uM): 41.30
- viability Replicate 2 (MDA-MB-436; 30 uM): 30.92
- viability Replicate 3 (MDA-MB-436; 30 uM): 39.29
- viability Average (RPMI-8226; 8226, 3 day, 0.01 uM): 101.19
- viability Replicate 1 (RPMI-8226; 8226, 3 day, 0.01 uM): 100.76
- viability Replicate 2 (RPMI-8226; 8226, 3 day, 0.01 uM): 100.18
- viability Replicate 3 (RPMI-8226; 8226, 3 day, 0.01 uM): 102.63
- viability Average (RPMI-8226; 8226, 3 day, 0.03 uM): 99.22
- viability Replicate 1 (RPMI-8226; 8226, 3 day, 0.03 uM): 99.66
- viability Replicate 2 (RPMI-8226; 8226, 3 day, 0.03 uM): 95.69
- viability Replicate 3 (RPMI-8226; 8226, 3 day, 0.03 uM): 102.30
- viability Average (RPMI-8226; 8226, 3 day, 0.1 uM): 101.66
- viability Replicate 1 (RPMI-8226; 8226, 3 day, 0.1 uM): 102.47
- viability Replicate 2 (RPMI-8226; 8226, 3 day, 0.1 uM): 99.05
- viability Replicate 3 (RPMI-8226; 8226, 3 day, 0.1 uM): 103.47
- viability Average (RPMI-8226; 8226, 3 day, 0.3 uM): 100.14
- viability Replicate 1 (RPMI-8226; 8226, 3 day, 0.3 uM): 98.42
- viability Replicate 2 (RPMI-8226; 8226, 3 day, 0.3 uM): 99.23
- viability Replicate 3 (RPMI-8226; 8226, 3 day, 0.3 uM): 102.78
- viability Average (RPMI-8226; 8226, 3 day, 1 uM): 99.15
- viability Replicate 1 (RPMI-8226; 8226, 3 day, 1 uM): 95.47
- viability Replicate 2 (RPMI-8226; 8226, 3 day, 1 uM): 99.58
- viability Replicate 3 (RPMI-8226; 8226, 3 day, 1 uM): 102.40
- viability Average (RPMI-8226; 8226, 3 day, 3 uM): 100.92
- viability Replicate 1 (RPMI-8226; 8226, 3 day, 3 uM): 100.27
- viability Replicate 2 (RPMI-8226; 8226, 3 day, 3 uM): 100.06
- viability Replicate 3 (RPMI-8226; 8226, 3 day, 3 uM): 102.42
- viability Average (RPMI-8226; 8226, 3 day, 9.5 uM): 90.08
- viability Replicate 1 (RPMI-8226; 8226, 3 day, 9.5 uM): 80.69
- viability Replicate 2 (RPMI-8226; 8226, 3 day, 9.5 uM): 88.67
- viability Replicate 3 (RPMI-8226; 8226, 3 day, 9.5 uM): 100.87
- viability Average (RPMI-8226; 8226, 3 day, 30 uM): 40.55
- viability Replicate 1 (RPMI-8226; 8226, 3 day, 30 uM): 58.77
- viability Replicate 2 (RPMI-8226; 8226, 3 day, 30 uM): 22.31
- viability Replicate 3 (RPMI-8226; 8226, 3 day, 30 uM): 40.58
- viability Average (RPMI-8226; 8226, 6 day, 0.01 uM): 98.95
- viability Replicate 1 (RPMI-8226; 8226, 6 day, 0.01 uM): 98.27
- viability Replicate 2 (RPMI-8226; 8226, 6 day, 0.01 uM): 97.90
- viability Replicate 3 (RPMI-8226; 8226, 6 day, 0.01 uM): 100.68
- viability Average (RPMI-8226; 8226, 6 day, 0.03 uM): 98.07
- viability Replicate 1 (RPMI-8226; 8226, 6 day, 0.03 uM): 95.77
- viability Replicate 2 (RPMI-8226; 8226, 6 day, 0.03 uM): 97.65
- viability Replicate 3 (RPMI-8226; 8226, 6 day, 0.03 uM): 100.80
- viability Average (RPMI-8226; 8226, 6 day, 0.1 uM): 98.68
- viability Replicate 1 (RPMI-8226; 8226, 6 day, 0.1 uM): 95.86
- viability Replicate 2 (RPMI-8226; 8226, 6 day, 0.1 uM): 100.16
- viability Replicate 3 (RPMI-8226; 8226, 6 day, 0.1 uM): 100.02
- viability Average (RPMI-8226; 8226, 6 day, 0.3 uM): 96.98
- viability Replicate 1 (RPMI-8226; 8226, 6 day, 0.3 uM): 94.57
- viability Replicate 2 (RPMI-8226; 8226, 6 day, 0.3 uM): 97.72
- viability Replicate 3 (RPMI-8226; 8226, 6 day, 0.3 uM): 98.63
- viability Average (RPMI-8226; 8226, 6 day, 1 uM): 97.56
- viability Replicate 1 (RPMI-8226; 8226, 6 day, 1 uM): 97.46
- viability Replicate 2 (RPMI-8226; 8226, 6 day, 1 uM): 98.37
- viability Replicate 3 (RPMI-8226; 8226, 6 day, 1 uM): 96.84
- viability Average (RPMI-8226; 8226, 6 day, 3 uM): 100.28
- viability Replicate 1 (RPMI-8226; 8226, 6 day, 3 uM): 98.97
- viability Replicate 2 (RPMI-8226; 8226, 6 day, 3 uM): 101.92
- viability Replicate 3 (RPMI-8226; 8226, 6 day, 3 uM): 99.95
- viability Average (RPMI-8226; 8226, 6 day, 9.5 uM): 107.21
- viability Replicate 1 (RPMI-8226; 8226, 6 day, 9.5 uM): 106.83
- viability Replicate 2 (RPMI-8226; 8226, 6 day, 9.5 uM): 105.76
- viability Replicate 3 (RPMI-8226; 8226, 6 day, 9.5 uM): 109.04
- viability Average (RPMI-8226; 8226, 6 day, 30 uM): 80.58
- viability Replicate 1 (RPMI-8226; 8226, 6 day, 30 uM): 102.03
- viability Replicate 2 (RPMI-8226; 8226, 6 day, 30 uM): 55.75
- viability Replicate 3 (RPMI-8226; 8226, 6 day, 30 uM): 83.98
